Assay results published in patent US20240158448A1, “MULTIVALENT NANO-'SELF' PEPTIDES AND USES THEREOF” (THE TRUSTEES OF THE UNIVERSITY OF PENNSYLVANIA, priority 2021, published 2024).
“Also recorded” adds a separate entry of the source.

What was measured:
THP-1 macrophages = assay: Peptide inhibition assay (competition with FAM-labeled nS-F on THP-1 macrophages); format: binding, human; conditions: pre-treatment with unlabeled peptide
Description: Peptide inhibition assay. THP-1 monocytes were PMA differentiated in RPMI for 48 hours. […] To measure background internalization of the FAM-labeled peptides, nS-X-FAM was used. To determine the efficacy of the bivalent peptides to inhibit SIRPα binding, nS-X was used. Excess peptides were washed off with PBS and cells were fixed with 4% formaldehyde for 15 minutes at RT, washed with PBS, stained with 1 μg/mL Hoechst 33342, and then washed with PBS again. Fluorescence imaging was performed as described elsewhere herein and quantification was done using ImageJ.

[1] = test system: human macrophages (opsonized K562 cancer cells); assay: Phagocytosis of opsonized K562 erythroleukemia cells by human macrophages; format: cell-based
Description: (§1) In vitro phagocytosis assay. Fresh human RBCs were washed twice with 50 mM EDTA (Thermo Fischer) in PBS (Gibco) then twice with 5% FBS in PBS. RBCs were opsonized with 20 μg/mL rabbit anti-human RBC antibody (Rockland) in 5% FBS for 1 hour at RT with shaking. For CD47 blocked RBCs, 5 μg/mL of mouse anti-human CD47 (B6H12; BD Biosciences) were added. Thereafter, RBCs were washed with PBS three times and stained with PKH26 dye (1:800 dilution in PBS; Sigma) for 1 hour at RT with shaking in the dark. RBCs were washed and resuspended in PBS.
(§2) THP-1 monocytes were PMA differentiated in RPMI for 48 hours. Macrophages were then washed with RPMI media three times. For SIRPα blocked THP-1 macrophages, 20 nM, 1 μM or 50 μM of the nano—Self peptides were incubated with the THP-1 macrophages for 1 hour at 37 ° C., 5% CO2 and 95% humidity. Those THP-Is were then washed with RPMI three times.
(§3) CO2 and 95% humidity. Macrophages were then washed with RPMI three times. Adherent and uninternalized RBCs were lysed with water for 30 seconds followed by immediate replacement with RPMI media. In order to distinguish remaining adherent RBCs from internalized RBCs, opsonized RBCs were stained with AlexaFluor 647 donkey anti-rabbit (binds to rabbit polyclonal opsonin on RBC; Invitrogen) IgG (1:1000) while unopsonized, CD47 blocked RBCs were stained with AlexaFluor 647 donkey anti-mouse (binds to mouse monoclonal anti-CD47 on RBCs; Invitrogen) IgG (1:1000) for 30 minutes. After washing, macrophages were fixed with 4% formaldehyde for 15 minutes at RT, washed with PBS, stained with 1 μg/mL Hoechst 33342, and then washed with PBS again. Fluorescence imaging was performed as described elsewhere herein and quantification was done using ImageJ. At least 200 cells were analyzed and experiments were repeated at least three times.
The anti-RBC successfully opsonized and triggered phagocytosis of K562 cells by macrophages (FIGS. 2A, 2F and 2E). […] Interaction of the nS peptides with K562 cells is likely minimal due to the relative lack of SIRPα expression. […] For both opsonized RBCs and opsonized K562s (FIGS. 2D, 2F), the hyperphagocytosis that is achieved with soluble F- and V-nS peptides matches the recently measured increases for disruption of both (i) the trans interactions between CD47 on a target and macrophage SIRPα and also, importantly, (ii) the cis interactions between CD47 and SIRPα on the same macrophage (FIG. 2G-left). Expression profiling of macrophages confirms these cells generally express CD47 at roughly similar levels to other cell types (FIG. 15). […] A preliminary conclusion is that nS-FF and the other substituted peptides, which were designed to bind SIRPα, inhibit both the cis and trans interactions between SIRPα and CD47 ([…]).

SIRPα = biological target: T1, SIRPα (Homo sapiens, UniProt P78324); assay: CD47-Fc Inhibition Assay on THP-1 macrophages; format: binding; conditions: 1 μM or 50 μM peptide, 2 μg/mL CD47-Fc, anti-Fc fluorescence
T1 construct: THP-1 monocytes were PMA differentiated in RPMI for 48 h; endogenous in cells; host or cells: PMA-differentiated THP-1 macrophages
Description: CD47-Fc Inhibition Assay. THP-1 monocytes were PMA differentiated in RPMI for 48 h. The macrophages were washed with RPMI media and then incubated with 1 μM or 50 μM of nano- Self peptides for 1 h at 37° C., 5% CO2, and 95% humidity. After washing, the macrophages were incubated with Human Trustain FcX Fc receptor blocking solution (Biolegend) for 10 min at RT and then incubated with 2 μg/mL CD47-Fc fusion protein (ACRO Biosystems) for 1 h at 37° C., 5% CO2, and 95% humidity. As a negative control, B6H12 was pre-mixed with CD47-Fc at 4° C. on a rotator for 1 h. The macrophages were then washed and incubated with 0.5 μg/mL goat anti-human IgG Fc DyLight 488 (Thermo Fischer) for 1 h at 37° C., 5% CO2, and 95% humidity. Finally, the macrophages were washed, fixed, Hoechst 33342 stained, and imaged as described above.
To determine whether the nS peptides bind to SIRPα, nS-FF and nS-F4 were used as soluble competitive inhibitors of saturable CD47-Fc fusion protein binding to macrophages (FIG. 20). Addition of multivalent nS peptides was followed by Fc-receptor blockade to minimize Fc-driven binding of construct. Afterwards, CD47-Fc was added and then finally anti-Fc fluorescence imaging was performed (FIG. 20, left).

human THP-1 macrophages = assay: In vitro phagocytosis assay: opsonized human RBCs engulfed by peptide-treated THP-1 macrophages; format: cell-based
Description: as §1, §2, §3

[2] = test system: mouse bone marrow derived macrophages (BMDMs); assay: Phagocytosis of anti-TYRP1 opsonized B16F10 melanoma cells by mouse bone marrow derived macrophages; format: cell-based; conditions: 50 μM peptide
Description: B16F10 cells: Bone marrow cells were isolated from femurs and tibias of healthy C57BL6/J mice (The Jackson Laboratory) and cultured in 10-cm petri dishes containing IMDM (Gibco) supplemented with 10% v/v FBS, 1% v/v penicillin/streptomycin, and 1:10,000 macrophage colony stimulating factor cytokine (M-CSF; Biolegend) for 7 days at 37° C., 5% CO2 and 95% humidity. All animal experiments were performed according to protocols approved by the University of Pennsylvania's IACUC (protocol #805977 and #804455). The resulting mouse bone marrow derived macrophages (BMDMs) were washed with PBS containing Ca2^+/Mg2^+ (Gibco) then detached with 0.25% trypsin-EDTA (Gibco) and re-plated in 6-well tissue culture plates using IMDM+M-CSF for 24 hours.
Mouse melanoma B16F10 cells were washed with PBS containing Ca2-/Mg2- and then trypsinized with 0.05% trypsin-EDTA. After washing twice with PBS, the cells were labeled with 1:10,000 CFDA—SE (Thermo Fisher) in PBS for 10 minutes. B16F10 cells were opsonized with 10 μg/mL anti-TYRP1 (TA99; Bio X Cell) in PBS for 2 hours at 4° C.with occasional inverting. For CD47 blocked B16F10 cells, 5 μg/mL of […] were added. During the incubation time, the BMDMs were washed with media then stained with 1:2,000 CellTracker Deep Red (Thermo Fisher) in PBS with Ca2^+/Mg2^+ for 10 min. After washing, 50 μM of the nano—Self peptides were incubated with the BMDMs for 1 hour at 37° C., 5% CO2 and 95% humidity. Finally, BMDMs were washed twice with PBS and then twice with serum-free IMDM.
Without removing the supernatant, the opsonized melanoma cells were added to the labeled BMDMs at a ratio of 2:1 for 2 hours at 37° C., 5% CO2 and 95% humidity. During the last 15 minutes of the assay, the cells were Hoechst stained. The wells were washed with serum free IMDM then fixed with 4% formaldehyde for 15 minutes at RT, and PBS washed. Fluorescence imaging was performed using an Olympus IX71 with a digital EMCCD camera (Cascade 512B) and a 40×/0.6 NA objective. Quantification was done with ImageJ (NIH). At least 200 cells were analyzed and two-tailed student's t-test was used to determine statistical significance.

level of inhibition of CD47-Fc binding (SIRPα) | Substance | inhibition of monovalent nS-F-FAM binding to macrophages (THP-1 macrophages) | increase of phagocytosis relative to opsonized and CD47 blocked K562 cells ([1]; saturating peptide) | macrophages engulfing opsonized K562 cells at saturation ([1]; saturation) [%] | effect on phagocytosis of opsonized RBCs (words) (human THP-1 macrophages; 20 nM peptide) | effect on phagocytosis of opsonized K562 cells [1] | effect on phagocytosis of opsonized RBCs (words) (human THP-1 macrophages; saturating / 50 μM peptide) | increase of macrophage phagocytosis relative to nS-wt (human THP-1 macrophages; saturating peptide) | effect on phagocytosis of opsonized WT and SIRPα KO B16 cells [2]
as inhibitory as anti-CD47 | ((VTELFREG-PEG5)2-K)2-K [nS-F4] | more potent in inhibiting monovalent nS-F-fluor association with macrophages than bivalent nS-FF | nearly doubled; also recorded: about two-fold | ~40 | more potent in enhancing phagocytosis |  |  |  | 
0 | (LETVEGTR-PEG5)2-K (LETVEGTRKRTGEVTEL; bivalent, PEG5 linkers, lysine core; nS-XX; (8)..(9) 5x PEG linker between residues; (9)..(10) 5x PEG linker between residues) [bivalent scrambled control] |  |  |  |  | unaffected; also recorded: only opsonization effect observed | unaffected; also recorded: do not affect baseline engulfment of opsonized RBCs; also recorded: do not have effects on phagocytosis |  | 
 | CVTELFREGC (HELM PEPTIDE1{C.V.T.E.L.F.R.E.G.C.[am]}$PEPTIDE1,PEPTIDE1,1:R3-10:R3$$$V2.0; N-terminus assumed; SMILES CC(C)C[C@@H]1NC(=O)[C@H](CCC(=O)O)NC(=O)[C@H]([C@@H](C)O)NC(=O)[C@H](C(C)C)NC(=O)[C@@H](N)CSSC[C@@H](C(N)=O)NC(=O)CNC(=O)[C@H](CCC(=O)O)NC(=O)[C@H](CCCNC(=N)N)NC(=O)[C@H](Cc2ccccc2)NC1=O) [nS-F-Cyc, cyclic variant of nS-F] |  |  |  |  |  | Maximum levels of phagocytic macrophages | roughly 25% | Maximum levels of phagocytic macrophages
 | (VTELVREG-PEG5)2-K (VTELVREGKGERVLETV; bivalent, PEG5 linkers, lysine core; nS-VV; (8)..(9) 5x PEG linker between residues; (9)..(10) 5x PEG linker between residues) [bivalent nS-V] | further decreased |  |  | successful in activating THP-1 to engulf opRBCs |  | activity profiles in phagocytosis assays that are similar to the monovalent nS-F |  | 
